{
  "source": "paper PMC13099375",
  "about": "(Nature biomedical engineering, 2025)",
  "key": {"[1]": {"tested_on": "primary mouse B cells (mouse CD19)", "assay": "FMC63 IgG binding to primary mouse B cells by flow cytometry (EDF7D)"}, "[2]": {"tested_on": "FMC63^scFv", "assay": "Retention of prebound biotin-FMC63 scFv on yeast clones under competition with FMC63 IgG (Fig 3I)", "type": "binding", "details": "pre-stained with 50nM Biotin-FMC63^scFv, then 1μM FMC63^IgG"}, "[3]": {"tested_on": "FMC63^scFv binding to CD19^+ NALM6 cells", "assay": "FMC63 scFv staining of NALM6 cells after pre-incubation with mimotope (Fig 4E)", "parameters": "species or system human", "details": "scFv pre-blocked with mimotope"}, "[4]": {"tested_on": "FMC63^IgG binding to CD19^+ NALM6 cells", "assay": "FMC63 IgG staining of NALM6 cells in the presence of mimotope (Fig 4E)", "parameters": "species or system human"}, "[5]": {"tested_on": "CD19-CAR Jurkat T cells", "assay": "CD69 expression on mimotope-pre-incubated CD19-CAR Jurkat T cells co-cultured with NALM6 (Fig 4F)", "type": "cell-based, human", "details": "1:1 E:T, 16 hours"}, "[6]": {"tested_on": "FMC63^IgG", "assay": "ELISA of FMC63 IgG binding to plate-bound synthetic mimotopes (Fig 2F, 3F)", "details": "peptide pre-treated with DTT"}, "[7]": {"tested_on": "FMC63^IgG", "assay": "Flow cytometry of FMC63 IgG binding to mimotope yeast clones (Fig 2E, 3B, 3D, 3E)"}, "[8]": {"tested_on": "FMC63-mCAR-T cells", "assay": "CTV dilution of FMC63-mCAR-T cells in LNs after amph-mimotope vaccination (Fig 5D)", "type": "in vivo, C57BL/6 mice", "details": "10 nmol amph-peptide + 25μg CDG, 48 hours after vaccination, n=3"}, "[9]": {"tested_on": "FMC63^scFv", "assay": "FMC63 scFv binding to K562 cells labeled with amph-mimotopes (Fig 3J)", "details": "read-out: Kd^scFv (apparent); K562 labeled with 500 nM amph-mimotope, fluorescent FMC63^scFv, flow cytometry"}, "[10]": {"tested_on": "CD19 CAR-T cells", "assay": "IFN-γ ELISA, human CD19 CAR-T co-cultured with amph-mimotope-labeled K562 cells (Fig 2H)", "type": "cell-based", "details": "6 hr"}, "[11]": {"tested_on": "EGFRvIII-CAR-T cells", "assay": "IFN-γ ELISA, control EGFRvIII-CAR-T co-cultured with amph-labeled K562 cells (Fig 2I)", "type": "cell-based"}, "[12]": {"tested_on": "FMC63-mCAR-T cells", "assay": "IFN-γ ELISA, FMC63-mCAR-T co-cultured with amph-mimotope-labeled K562 cells (Fig 5B)", "type": "cell-based, mouse"}, "[13]": {"assay": "Clinical data, pediatric B-ALL: CAR-T expansion by qPCR and B cell aplasia (Fig 1A-D)", "type": "in vivo, human", "details": "for probability of continued B-cell aplasia: at 6 months"}, "[14]": {"assay": "Clinical data, adult B-ALL: peak CAR-T expansion by qPCR (EDF2A)", "type": "in vivo, human", "details": "adult relapsed/refractory ALL"}, "[15]": {"assay": "Clinical data, adult B-cell lymphoma: peak CAR-T expansion by qPCR (EDF2B)", "type": "in vivo, human", "details": "relapsed/refractory B-NHL"}},
  "note": "“And” between values parts separate entries of the source, which are not always exact repeats. Identical values can stand only once. Bridges are numbered along the chain shown (N, C = ends). Where no end group is shown, it is not given here. [ ]: non-standard residue; d: D form. Lys(N3) = [N-]=[N+]=NCCCC[C@H](N)C(=O)O",
  "data": [
    {"substance": "FMC63 IgG: recombinant FMC63 (anti-human CD19) expressed as a full-length IgG", "values": [
      {"measurement": "binding to WT B cells expressing mouse CD19 (in words)", "setting": "[1]", "result": "minimal binding"}
    ]},
    {"substance": "PRKHSGRICPWNCKELDNPPFIFGNR (disulfide) [F12-A1]", "values": [
      {"measurement": "time FMC63^scFv remained bound on yeast surface in the presence of excess soluble FMC63^IgG", "setting": "[2]", "result": "over 24 hours"},
      {"measurement": "mimotope concentration at which FMC63^scFv binding to NALM6 cells is compromised / abolished", "setting": "[3]", "result": "greater than 1 μM"},
      {"measurement": "mimotope concentration at which FMC63^IgG binding to CD19 is abolished", "setting": "[4]", "result": "> 10", "unit": "µM"},
      {"measurement": "CD69 induction on FMC63 CAR Jurkat cells stimulated with NALM6 after pre-blocking with mimotope", "setting": "[5]", "result": "not affected"}
    ]},
    {"substance": "RHCPWNCSLL (disulfide) [P1]", "values": [
      {"measurement": "FMC63^IgG binding to DTT-treated peptide", "setting": "[6]", "result": "completely ablated"},
      {"measurement": "binding of yeast clone at 20 nM biotinylated FMC63^IgG", "setting": "[7]; flow cytometry", "result": "no detectable binding"},
      {"measurement": "FMC63^IgG binding to yeast clone under mild reductive conditions", "setting": "[7]; yeast treated with 0.1mM, 1mM DTT, 500 nM biotin-FMC63^IgG", "result": "eliminated FMC63^IgG binding"}
    ]},
    {"substance": "amph-F12: amphiphile (DSPE-PEG2k) conjugate of F12 ({DSPE‑PEG2k‑DBCO-azido lysine}-RICPWNCKEL; disulfide 3-7 (inferred))", "values": [
      {"measurement": "CAR-T cell proliferation (CTV dilution) in LNs (in words)", "setting": "[8]", "result": "limited proliferation"}
    ]},
    {"substance": "amph-P1: P1 with N-terminal azide conjugated to DSPE-PEG2k-DBCO ({DSPE‑PEG2k‑DBCO}-[Lys(N3)]RHCPWNCSLL; not fully specified; cysteine pairing not given here)", "values": [
      {"measurement": "Kd", "setting": "[9]", "result": "> 1000", "unit": "nM"},
      {"measurement": "IFN-γ by ELISA", "setting": "[10]; CD19^− K562 labeled with 100 nM amph-P1, CD19 CAR-T 5:1 E:T, triplicate samples", "result": "79.6185 and 80.063 and 79.9889"},
      {"measurement": "IFN-γ secretion from CD19 CAR-T cells (in words)", "setting": "[10]; K562 labeled with 100 nM amph-P1, 5:1 E:T", "result": "effectively triggered IFN-γ secretion from CD19 CAR-T cells but to a much lesser extent than NALM6 cells"},
      {"measurement": "stimulation of control EGFRvIII CAR-T cells (in words)", "setting": "[11]; K562 labeled with 100 nM amph-ligand, 5:1 E:T, 6 hours, IFN-γ ELISA", "result": "failed to stimulate"},
      {"measurement": "IFN-γ secretion, EGFRvIII-CAR-T with amph-labelled K562 (Fig 2I)", "setting": "[11]; replicate 1", "result": 128},
      {"measurement": "IFN-γ secretion, EGFRvIII-CAR-T with amph-labelled K562 (Fig 2I)", "setting": "[11]; replicate 2", "result": 153},
      {"measurement": "IFN-γ secretion, EGFRvIII-CAR-T with amph-labelled K562 (Fig 2I)", "setting": "[11]; replicate 3", "result": 104},
      {"measurement": "CAR-T cell proliferation (CTV dilution) in LNs (in words)", "setting": "[8]", "result": "no CAR-T cell proliferation"}
    ]},
    {"substance": "amph-mimotopeF12 ({DSPE‑PEG2k‑DBCO}-[Lys(N3)]RICPWNCKEL; disulfide 4-8 (inferred))", "values": [
      {"measurement": "IFN-γ secretion, FMC63-mCAR-T with amph-labelled K562 (Fig 5B)", "setting": "[12]; replicate 1", "result": 739.091},
      {"measurement": "IFN-γ secretion, FMC63-mCAR-T with amph-labelled K562 (Fig 5B)", "setting": "[12]; replicate 2", "result": 671.636},
      {"measurement": "IFN-γ secretion, FMC63-mCAR-T with amph-labelled K562 (Fig 5B)", "setting": "[12]; replicate 3", "result": 771.636}
    ]},
    {"substance": "tisagenlecleucel", "values": [
      {"measurement": "median time to peak CAR-T expansion", "setting": "[13]; after infusion, both cohorts (high ≥40%, n=40; low <40%, n=90), qPCR", "result": 10, "unit": "days"},
      {"measurement": "probability of continued B-cell aplasia", "setting": "[13]; high tumor burden patients, 95% CI 55–95", "result": 72, "unit": "%"},
      {"measurement": "probability of continued B-cell aplasia", "setting": "[13]; low tumor burden patients, 95% CI 57–78", "result": 67, "unit": "%"},
      {"measurement": "peak of expansion", "setting": "[14]; high tumor burden (n=23)", "result": "77,109 CAR19 copies/μg of DNA"},
      {"measurement": "peak of expansion", "setting": "[14]; low tumor burden (n=6)", "result": "25,064 CAR19 copies/μg of DNA"},
      {"measurement": "CAR-T19 expansion", "setting": "[15]; high disease burden (n=7)", "result": "35,857 CAR19 copies/μg of DNA"},
      {"measurement": "CAR-T19 expansion", "setting": "[15]; low tumor burden (n=30)", "result": "18,718 CAR19 copies/μg of DNA"}
    ]}
  ]
}
